# Assay results as given in patent US8586307B2, “Methods for diagnosing epigenetic, transgenerational effects of environmental toxicants on mammalian germ-lines and treating associated diseases” (priority 2005, dated 2013).
# Values joined by “and” are separate entries in the source; they are usually repeats but may differ in a detail not shown here. Equal values may be shown once.
# Experiments:
# Type in all cases: in vivo, rat
# NCAM1 = assay: Semi-quantitative PCR of NCAM1 expression in adult brain; conditions: F3 generation males vs control
# Procedure: The expression of one of the known genes nearest an altered methylation site identified candidate #1 (NCAM1), is primarily brain specific. An analysis of gene expression for NCAM in the brain was performed. Brains from adult control and vinclozolin F3 generation males were isolated, and RNA was prepared. Four control and five vinclozolin F3 generation animals were analyzed separately. […] This decreased expression of NCAM1 was quantitated, and over a 10-fold reduction in expression was observed between control and vinclozolin F3 generation males, FIG. 15C. Therefore, the hypermethylation of the candidate #1 site in sperm DNA was associated with a reduction in NCAM1 expression in the adult male brain, in vinclozolin F3 generation animals.
# E16 testis = assay: Microarray gene expression analysis of embryonic testis; conditions: F1 and F2 generation E16 testis vs control
# From the text: Microarray analysis: RNA was collected from embryonic day […] 16 (E16) testis from control and E16 vinclozolin F1 and F2 generation animals as described above for Example I. RNA was hybridized to the Affymetrix (Affymetrix, Santa Clara, Calif.) rat 230A gene chip. The Genomics Core in the Center for Reproductive Biology at Washington State University, Pullman, Wash., performed the analysis as previously described, and incorporated by reference herein [149, 150]. Briefly, RNA from the cells was reverse transcribed into cDNA then was transcribed into biotin labeled RNA. Biotin labeled RNA was then hybridized to the Affymetrix rat 230A gene chips. Each gene set is composed of 16 pairs of […] oligonucleotides, with one sense strand specific for the gene and one anti-sense strand with single point mutations for use as a comparative negative control. Biotinalated RNA was then visualized by labeling with phycoerythrin-coupled avidin. The microarray was scanned on a Hewlett-Packard Gene Array Scanner (Hewlett-Packard Co., Palo Alto, Calif.).
# Bioinformatics: The majority of the data analysis was performed using the Affymetrix Microarray Suite Software (Affymetrix, Santa Clara, Calif.). […] Basic expression analysis was determined by accessing the Affymetrix database through the Microarray Suite Software. […]
# sperm DNA = assay: Bisulfite sequencing of sperm DNA
# Procedure: Bisulfite Sequencing: Genomic DNA was isolated from F1 and F4 sperm samples using the DNeasy Tissue Kit (Qiagen, Valencia, Calif.) and digested with Rsa I. Genomic DNA was then treated with sodium bisulfite, following methods previously established. Briefly, 5 μg of digested DNA was denatured in NaOH, then treated with 4.0 M, pH 5.0 sodium metabisulfite for 16 hours at 55° C. Following desalting, DNA was desulfonated with NaOH, neutralized and precipitated with ammonium acetate and ethanol. DNA samples were resuspended in 30 μL, of 1 mM Tris buffer, pH 8.0. Sequence specific primers were generated to amplify the region of interest. PCR products were cloned into pGemT Easy vector (Promega Corporation) and sequenced. Approximately 35 clones from each PCR product were sequenced for analysis of methylation state of the CpG sites. Confirming altered methylation states involved comparisons of the sequence following the bisulfite treatment. The primers for the lysophospholipase PCR bisulfite analysis were 5′GGTATATATAGAGGAAGGTAGGTA GG3′ (SEQ ID NO:1) and 5′TAAAAACCTCCAAAAAACAAACAC T3′ (SEQ ID NO:2).
# Bisulfite sequencing: Bisulfite sequencing was used to characterize the DNA methylation patterns and changes. Genomic DNA was isolated from control and vinclozolin F2 and F3 generation epididymal sperm using the DNeasy Tissue Kit. Genomic DNA (10 μg) was digested with RsaI then treated with bisulfite as described above for Example I. After purification, the bisulfite converted DNA was used as a template for PCR. The bisulfite primers for each candidate were designed using MethPrimer (www.urogene.org/methprimer) system (Li and Dahiya, 2002) and are listed in Table 2. The sequence specific primers were generated to amplify the CpG region of interest to characterize the methylation pattern. PCR conditions for amplification were as follows: 30 cycles followed by another 30 cycles with nested primers (30 s at 95° C., 45 s at 50° C., and 50 s at 72° C.) and then 5 min at 72° C. with modified 1× buffer [10×: 166 mM (NH4)2.SO4; 670 mM Tris pH 8.8; 67 mM MgCl2; 100 mM β-mercaptoethanol]. PCR products were cloned into pGEM-T easy vector (Promega) and sequenced using Big-Dye Terminator (Applied BioSystems). Approximately 50 different clones from each PCR product were sequenced to characterize the methylation state of the CpG sites identified. A mixture of a minimum of 3 different F2 or F3 generation control and vinclozolin animals were used to generate approximately 50 clones per candidate analyzed. Statistical differences between methylation states were determined with a Fisher's Exact Test.
# [1] = F2/F3 sperm DNA, one of 5 potential CpG sites
# [2] = F2/F3 sperm DNA, one of 6 potential CpG sites
smiles,measurement,setting,value
C=CC1(C)OC(=O)N(c2cc(Cl)cc(Cl)c2)C1=O (stereo not shown) [vinclozolin],reduction in NCAM1 expression,NCAM1,> 10 fold
same,"expression of Fadd, Pbm1b, Rps12 and Waspip",E16 testis,increased expression
same,"expression of ankyrin 28, Ncstn, Rab12 and Lrrn6a",E16 testis,reduced expression
same,treated sperm DNA samples with bisulfite altered sequence of the lysophospholipase gene,sperm DNA; CpG island of lysophospholipase gene,approximately 25%
same,"methylation differences, Candidate #7 (Ankrd28/Galntl2)",sperm DNA; F2/F3 sperm DNA,did not have any detectable differences
same,"methylation differences, Candidate #21, 32 (LOC503205/NCAM1)",sperm DNA; F2/F3 sperm DNA,no differences in methylation
same,"methylation differences, Candidate #23 (LOC503150/snRP1c)",sperm DNA; F2/F3 sperm DNA,no differences in methylation
same,"methylation differences, Candidate #25 (Mup4/MUP)",sperm DNA; F2/F3 sperm DNA,no differences in methylation
same,"CpG hypermethylated to, Candidate #29 (Runx1/Awa1p)","sperm DNA; F2/F3 sperm DNA, 1 of 6 potential CpG sites",48%
same,"CpG hypermethylated to, Candidate #14, 15 (Lrrn6a)","sperm DNA; F2/F3 sperm DNA, 2 of 4 potential CpG",27%
same,"CpG hypermethylated to, Candidate #26 (Acaca)","sperm DNA; F2/F3 sperm DNA, 2 of 5 potential CpG sites",50% and 28%
same,"CpG hypermethylated to, Candidate #33 (Six3/Six2)","sperm DNA; F2/F3 sperm DNA, 2 of 6 potential CpG sites",31% and 57%
same,"CpG hypermethylated to, Candidate #27, 28 (zinc finger protein 212)","sperm DNA; F2/F3 sperm DNA, 2 of 8 potential CpG sites",45% and 48%
same,"CpG hypermethylated to, Candidate #5, 6, 9 (FLJ22405 protein)","sperm DNA; F2/F3 sperm DNA, 2 of 9 potential CpG",50% and 35%
same,"CpG hypermethylated to, Candidate #17, 18 (nicastrin/Copa)","sperm DNA; F2/F3 sperm DNA, 2 of 20 potential CpG sites",55% and 30%
same,"CpG hypermethylated to, Candidate #13 (Nfix)","sperm DNA; F2/F3 sperm DNA, 4 of 17 potential CpG sites",50-60%
same,"methylation differences, Candidate #4, 19 (Cacna1e)","sperm DNA; F2/F3 sperm DNA, 6 potential CpG",did not have any detectable differences in methylation
same,"CpG hypermethylated to, Candidate #31 (Waspip/LOC499811)","sperm DNA; F2/F3 sperm DNA, one of 4 potential CpG sites",42%
same,"CpG hypermethylated to, Candidate #8 (liprin-α1/Fadd)",sperm DNA; [1],65%
same,"CpG hypermethylated to, Candidate #22 (tgolgin-1)",sperm DNA; [1],67%
same,"CpG hypermethylated to, Candidate #12 (similar to importin 7)",sperm DNA; [2],51%
same,"CpG hypermethylated to, Candidate #16 (optineurin)",sperm DNA; [2],79%
same,"H19 methylation (known imprinted gene, control)",sperm DNA; control vs vinclozolin F2/F3 sperm DNA,No change
same,candidate DNA sequences confirmed to have specific hypermethylation,"sperm DNA; of the 25 candidates, F2/F3 sperm DNA",15
same,"methylation change, Candidate #34 (RAB12)",sperm DNA; partial region only,no change in methylation
